Reference: US10010574B2, “Silk peptide for improving neuroprotective and neurofunctional effects and a method of its preparation” (BRAINGUARD CO., LTD., priority 2004, dated 2018)

System: depression animal model
Assay: Forced swimming test (depression animal model)
Format: in vivo, Sprague Dawley rats
Details: P<0.05
Protocol: Four Sprague Dawley rats (140-180 g, Dae Han BioLink Co., Korea) each box were placed under constant condition (temperature: 25±1° C., relative humidity: 60±10%), and fed with unlimited water and food for 1 week. Fifty rats were selected for experiment among the rats by excluding ones that were undeveloped, show less motion or abnormal behavior in forced swimming test.
As a standard method for behavioral despair test, a forced swimming test (FST) was used in this experiment, which is known as principal test for verify anti-depression efficacy.
A rat was placed for 15 minutes in a transparent cylindrical water tank with 40 cm of height and 18 cm of diameter, which was filled with 15 cm deep water. […] The immobilization state typically refers to a state that a rat pushes only its head above the surface and was in a minimum motion for keeping itself afloat. After forced swimming test, the rat was dried at 37° C. for 30 minutes and returned to the box.
After 24 hours, the second forced swimming was performed for 5 minutes under the same condition with the first forced swimming test, and total immobilization time was measured. […] The immobilization time was measured by recording total process of the forced swimming and comparing between the control group and the experiment group. Values measured by 3 different analyzers were averaged and used as an analysis data. […]

## CN(C)CCCN1c2ccccc2CCc2ccccc21 [imipramine]
Oral one time a day for 7 days, FIG. 23
  Average immobilization time, 7-day repeated administration: significantly decreased
Silk peptide 1 g/kg oral, imipramine 20 mg/kg, 1 hour before second forced swimming, FIG. 22
  Average immobilization time, one time urgent administration: significantly decreased
